# Source: patent US20170209447A1, “Use of PNP Inhibitor to Treat Relapse of Malignancy after Hematopoietic Stem Cell Transplant” (Nitor Therapeutics, priority 2014, published 2017)
# Columns and labels:
# B16 tumors = test: PNPi as anticancer agent in mouse melanoma model; assay type: in vivo, C57BL/6 mice; details: cyclophosphamide 100 mg/kg IP single dose; FIG. 6
# Protocol: Evaluation of PNPi as Anticancer Agent in Mouse Melanoma Model.
# Treatment with the NTR001 was initiated on day 6 after injection of tumor cells. Tumor volume and survival were recorded every 3-4 days.
# human TLR2 = biological target: T1, human TLR2 (Homo sapiens, UniProt O60603); test: TLR ligand screening: NF-κB SEAP reporter in HEK293 cells expressing TLR2; assay type: cell-based; details: FIG. 2
# T1 construct: expressed in transfected cells; host or cells: HEK293
# Protocol: (§1) Toll-Like Receptor (TLR) Ligand Screening: In-vitro Activity of the PNPi, Guanosine and Inosine on Seven Different Human TLRs (TLR2, 3, 4, 5, 7, 8 and 9) as a Potential Agonist.
# (§2) Method: TLR stimulation is tested by assessing NF-KB activation in HEK293 cells expressing a given TLR. The Secreted Embryonic Alkaline Phosphatase (SEAP) reporter is under the control of a promoter inducible by the transcription factor NF-κB.
# (§3) This reporter gene allows the monitoring of signaling through the TLR, based on the activation of NF-κB. The compounds are evaluated at one concentration and compared to control ligands. This step is performed in triplicate.
# human TLR4 = biological target: T2, human TLR4 (Homo sapiens, UniProt O00206); test: TLR ligand screening: NF-κB SEAP reporter in HEK293 cells expressing TLR4; assay type: cell-based; details: FIG. 2
# T2 construct: expressed in transfected cells; host or cells: HEK293
# Protocol: as §1, §2, §3
# tetanus toxoid vaccine = test: PNPi as adjuvant in tetanus toxoid vaccine efficacy study (tetanus toxoid mouse model); assay type: in vivo, mice; details: compared to vehicle treated group
# Protocol: This Example Evaluates PNPi as an Adjuvant in Tetanus Toxoid Vaccine Efficacy Study.
# Method: Tetanus toxoid (TT) was used to vaccinate mice thrice, two weeks apart. Mice were treated by oral administration of compounds NTR001 and NTR002 and serum was collected at various time points for antibody titer and interferon-g analysis. Mice in Groups 2-6 (Table 2) are vaccinated subcutaneously with 0.1 ml tetanus toxoid vaccine on DAYS 0, 14 and 28. Mice in Group 1 (Table 1) received no vaccine. Antibody titers for DAYS 38 are determined by ELISA using tetanus toxoid coated microtiter plates and anti-mouse conjugate. Sera from DAY 30 are assayed by ELISA for interferon-g.
# [1] = tested on: L. monocytogenes (ATCC Strain35152, hemolytic substrain); details: 30 mg/kg PO or IP, or 2 mg/kg drinking water; 1×10^6 CFU i.v.; FIGS. 7 and 9
# [2] = Guanosine 100 uM in combination with NTR001 (10 uM) and/or Inosine (100 uM)
# [3] = one concentration: Guanosine 100 uM, NTR001 10 uM, Inosine 100 uM, HEK293, triplicate
# T1 sequence (O60603 21-784): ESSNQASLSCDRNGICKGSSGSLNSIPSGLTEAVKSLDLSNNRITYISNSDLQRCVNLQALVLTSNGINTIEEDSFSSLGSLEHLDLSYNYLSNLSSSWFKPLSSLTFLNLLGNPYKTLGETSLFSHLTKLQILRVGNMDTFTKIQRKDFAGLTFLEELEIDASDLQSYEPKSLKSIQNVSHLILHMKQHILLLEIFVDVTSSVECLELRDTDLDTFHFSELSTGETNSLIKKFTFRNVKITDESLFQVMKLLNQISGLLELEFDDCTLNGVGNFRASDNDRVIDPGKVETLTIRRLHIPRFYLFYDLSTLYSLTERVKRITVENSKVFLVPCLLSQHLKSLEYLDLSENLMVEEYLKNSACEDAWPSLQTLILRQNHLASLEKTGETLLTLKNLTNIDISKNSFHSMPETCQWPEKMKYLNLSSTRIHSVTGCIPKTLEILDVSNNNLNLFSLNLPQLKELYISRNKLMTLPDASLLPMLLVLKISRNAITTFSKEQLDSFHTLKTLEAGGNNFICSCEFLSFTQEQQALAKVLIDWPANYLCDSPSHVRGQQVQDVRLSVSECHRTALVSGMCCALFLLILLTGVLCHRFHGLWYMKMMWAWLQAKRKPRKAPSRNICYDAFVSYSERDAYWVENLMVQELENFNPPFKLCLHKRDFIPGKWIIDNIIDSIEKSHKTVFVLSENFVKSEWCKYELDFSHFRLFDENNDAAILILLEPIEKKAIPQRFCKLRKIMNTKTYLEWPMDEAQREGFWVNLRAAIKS
# T2 sequence (O00206 24-839): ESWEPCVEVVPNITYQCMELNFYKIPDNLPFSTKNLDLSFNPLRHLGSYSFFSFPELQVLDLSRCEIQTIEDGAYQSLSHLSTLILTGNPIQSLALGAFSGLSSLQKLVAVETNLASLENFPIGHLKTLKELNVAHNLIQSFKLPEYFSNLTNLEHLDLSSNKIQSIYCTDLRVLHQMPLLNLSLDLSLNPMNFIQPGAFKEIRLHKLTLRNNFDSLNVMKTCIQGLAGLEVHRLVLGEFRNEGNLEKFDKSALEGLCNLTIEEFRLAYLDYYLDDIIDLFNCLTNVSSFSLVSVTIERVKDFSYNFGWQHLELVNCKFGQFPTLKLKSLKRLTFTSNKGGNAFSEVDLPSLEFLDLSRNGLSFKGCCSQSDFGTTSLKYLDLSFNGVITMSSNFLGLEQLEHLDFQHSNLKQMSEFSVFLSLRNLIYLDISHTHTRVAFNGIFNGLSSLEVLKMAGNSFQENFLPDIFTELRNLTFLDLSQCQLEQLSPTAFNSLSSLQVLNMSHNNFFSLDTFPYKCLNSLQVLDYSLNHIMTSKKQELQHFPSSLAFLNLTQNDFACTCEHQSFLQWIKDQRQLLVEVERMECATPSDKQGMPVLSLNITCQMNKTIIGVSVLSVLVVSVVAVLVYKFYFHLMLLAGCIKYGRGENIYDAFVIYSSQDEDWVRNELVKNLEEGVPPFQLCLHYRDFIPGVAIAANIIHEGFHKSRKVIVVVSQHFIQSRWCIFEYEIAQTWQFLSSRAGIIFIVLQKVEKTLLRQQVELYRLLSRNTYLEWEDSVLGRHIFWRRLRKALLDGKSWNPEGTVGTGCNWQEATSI
# T2 sequence (Q9Y6Y9 17-160 partner limits assumed): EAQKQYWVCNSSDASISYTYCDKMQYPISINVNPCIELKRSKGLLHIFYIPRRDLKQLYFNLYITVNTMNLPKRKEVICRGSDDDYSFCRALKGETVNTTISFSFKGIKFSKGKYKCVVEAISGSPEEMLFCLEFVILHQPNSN
structure (smiles),measurement,setting,value
"O=P1(N(CCCl)CCCl)NCCCO1 (centres unmarked) [Cyclcophosphamide, cyclophosphamide, reference compound]",survival,B16 tumors,30%
"Nc1nc2c(ncn2[C@@H]2O[C@H](CO)[C@@H](O)[C@H]2O)c(=O)[nH]1 [Guanosine, guanosine]","stimulatory effect on human TLR2 (NF-κB activation), combination",human TLR2; [2],significant stimulatory effect
same,stimulatory effect on human TLR2 (NF-κB activation),human TLR2; [3],significant stimulatory effect
same,"stimulatory effect on human TLR4 (NF-κB activation), combination",human TLR4; [2],significant stimulatory effect
same,stimulatory effect on human TLR4 (NF-κB activation),human TLR4; [3],significant stimulatory effect
"O=c1[nH]cnc2c(CN3C[C@H](CO)[C@@H](O)C3)c[nH]c12 [NTR002, 1,5-dihydro-7-[[(3R,4R)-3-hydroxy-4-(hydroxymethyl)pyrrolidin-1-yl]methyl]-4H-pyrrolo[3,2-d]pyrimidin-4-one]",serum interferon-g levels,"tetanus toxoid vaccine; day 30, ELISA, high dose group 60 mg/kg p.o., FIG. 4",elevated
same,serum tetanus toxoid antibody titers,"tetanus toxoid vaccine; day 38, ELISA, p.o. 30 mg/kg (6 days of treatment) and 60 mg/kg (3 days of treatment), FIG. 3",significantly elevated
same,weight loss,[1],significant decrease
